Source: patent US20240093251A1, “Reactivity of Nitrile Hydratase by Aldehyde” (Mitsubishi Chemical Corporation, priority 2021, published 2024)
Structures can show the parent of a compound that is named as a salt.

Key:
Format in all cases: biochemical
nitrile hydratase [1] = test: Test Example 1: effect of compounds on the amide formation reaction with Rhodococcus rhodochrous J-1 bacterial cells; settings: hydrocyanic acid 2.0 ppm in acrylonitrile, 25° C.
Experimental: (§1) Acrylonitrile was prepared so as to have a hydrocyanic acid concentration of 2.0 ppm.
A diluted solution containing an aldehyde compound diluted with a phosphate buffer (pH7.0) so as to obtain a concentration of 5 ppm or 10 ppm in the reaction solution, was added, and finally the phosphate buffer (pH7.0) was added to obtain a total amount of 6.2 g. The obtained solution was stirred while the temperature thereof was controlled at 25° C. To this solution, acrylonitrile (4.8 mL (acrylamide 50% equivalent, 38 wt %)) was added to initiate a reaction. At the time points of 3.5, 4.5, 5.0, and 6.0 hours later, the reaction solution was collected and the concentration of acrylonitrile was measured by gas chromatography (column: PoraPack-PS (manufactured by Waters Corporation), 1 m, 210° C., carrier gas: helium, detector: FID).
(§2) The concentration ratio can be obtained in accordance with the following expression:
(§3) Concentration ratio [%]=(acrylonitrile concentration of the case where aldehyde was added/the case where aldehyde was not added)×100

nitrile hydratase [2] = test: Amide formation reaction from acrylonitrile with Rhodococcus rhodochrous J-1 bacterial cells, acetaldehyde in acrylonitrile (Examples 1-4); settings: for Concentration ratio (4 hr) (acrylonitrile concentration with aldehyde / without aldehyde x100): 20° C.
Experimental: Rhodococcus rhodochrous J-1 strain (FERMBP-1478) having nitrile hydratase activity was aerobically cultured in a medium (pH7.0) containing glucose (2.0%), urea (1.0%), peptone (0.5%), yeast extract (0.3%) and cobalt chloride (0.05%) at 30° C. The medium was washed with a 50 mM phosphate buffer (pH7.0) to obtain a bacterial suspension (3% on a dry-cell basis).
A cyan 1000-ppm standard solution (manufactured by Hayashi Pure Chemical Ind., Ltd.) was added to acrylonitrile for industrial use (manufactured by Mitsubishi Chemical Corporation) such that the hydrocyanic acid concentration became 2.1 ppm on a weight basis. […]
To a glass case (internal volume: 13.5 ml) with a lid, 3.15 g of a phosphate buffer (pH7.0), and 3.15 g of a diluted bacterial cell solution, which was prepared by diluting bacterial cells as mentioned above with the phosphate buffer (pH7.0) such that initial activity thereof in a reaction solution became 1460 U, were added. The mixture was stirred while controlling the temperature at 20° C. […] Four hours later, the reaction solution was collected and the concentration of acrylonitrile was measured by gas chromatography (column: PoraPack-PS (manufactured by Waters Corporation), 1 m, 210° C., carrier gas: helium, detector: FID).
as §2, §3

[3] = test system: nitrile hydratase derived from Rhodococcus rhodochrous M8 strain; test: Example 5: amide compound formation reaction by M8 strain-derived transformant (ATCC12674/pSJ-N01A); settings: hydrocyanic acid 2.0 ppm in acrylonitrile, 25° C.
Experimental: (§4) The transformant (ATCC12674/pSJ-N01A) obtained in the above step was inoculated in MYK medium (50 μg/ml kanamycin) and subjected to shaking culture performed at 30° C. for two days. The cultured transformant (1%) was inoculated in GGPK medium (1.5% glucose, 1% monosodium glutamate, 0.1% yeast extract, 0.05% K2HPO4, 0.05% KH2PO4, 0.05% […], 1% CoCl2, 0.1% urea, 50 μg/ml kanamycin, pH7.2). Shaking culture was carried out at 30° C. for three days and bacterial cells were centrifugally collected. Thereafter, the bacterial cells were washed with a 100 mM phosphate buffer (pH7.0) and a bacterial suspension was prepared.
According to Example 1, the effect of propionaldehyde on amide compound formation reaction by M8 strain-derived transformant (ATCC12674/pSJ-N01A) was evaluated.
as §1
To a glass case (internal volume: 13.5 ml) with a lid, 1.00 g of a diluted bacterial-cell solution, which was prepared by diluting bacterial cells as mentioned above with the phosphate buffer (pH7.0) such that the initial amount of the bacterial cells in a reaction solution became 5.6 mg; and a diluted solution, which was prepared by diluting each aldehyde compound with a phosphate buffer (pH7.0) so as to obtain a concentration thereof of 10 ppm, 25 ppm or 50 ppm in a reaction solution, were added; and finally, a phosphate buffer (pH7.0) was added up to a total amount of 9.0 g. The solution obtained was stirred while the temperature thereof was controlled at 25° C. To this solution, acrylonitrile (1.0 g) was added to initiate a reaction. Six hours later, the reaction solution was collected and the concentration of acrylonitrile was measured by gas chromatography (column: PoraPack-PS (manufactured by Waters Corporation), 1 m, 210° C., carrier gas: helium, detector: FID).
as §2, §3

[4] = test system: nitrile hydratase derived from Pseudonocardia thermophila JCM3095 strain; test: Example 6: amide compound formation reaction by transformant (ATCC12674/pSJ-N02A); settings: propionaldehyde 7 ppm in reaction solution, propionaldehyde/cyan 10.7 mol/mol, hydrocyanic acid 2.0 ppm in acrylonitrile, 25° C.
Experimental: as §4, with “(ATCC12674/pSJ-N02A)” for “(ATCC12674/pSJ-N01A)”
According to Example 1, the effect of propionaldehyde on amide compound formation reaction by transformant (ATCC12674/pSJ-N02A) was evaluated.
Acrylonitrile was prepared so as to have a hydrocyanic acid concentration of 2.0 ppm. […]

[5] = 5 ppm addition in reaction solution
[6] = 10 ppm addition in reaction solution

Row | Molecule | Concentration Ratio (3.5 hr) (nitrile hydratase [1]; [5]) | Concentration Ratio (6 hr) (nitrile hydratase [1]; [5]) | further results
1 | CCCCCCCC=O [No. 7, octanal] | 106.4% | 117.5% | Concentration Ratio (3.5 hr) (nitrile hydratase [1]; [6]): 72.9%; Concentration Ratio (6 hr) (nitrile hydratase [1]; [6]): 11.6%
2 | CCCCCCC=O [No. 6, heptanal] | 62.1% | 17.6% | 
3 | C=C(C)C1CC=C(C=O)CC1 (stereo not shown) [No. 17, perillaldehyde] | 82.8% | 59.6% | 
4 | C1N2CN3CN1CN(C2)C3 [No. 20, hexamethylenetetramine] | 0.3% | 2.4% | 
5 | O=CC=Cc1ccccc1 [No. 16, cinnamaldehyde] | 97.0% | 102.6% | Concentration Ratio (3.5 hr) (nitrile hydratase [1]; [6]): 99.2%; Concentration Ratio (6 hr) (nitrile hydratase [1]; [6]): 87.1%
6 | CC=O [No. 2, acetaldehyde] | 7.5% | 9.2% | Concentration ratio (4 hr) (acrylonitrile concentration with aldehyde / without aldehyde x100) (nitrile hydratase [2]; Example 1: hydrocyanic acid 2.1 ppm, acetaldehyde 10 ppm in acrylonitrile, acetaldehyde/cyan 2.9 mol/mol): 38.8%; Concentration ratio (4 hr) (acrylonitrile concentration with aldehyde / without aldehyde x100) (nitrile hydratase [2]; Example 2: hydrocyanic acid 2.1 ppm, acetaldehyde 6 ppm in acrylonitrile, acetaldehyde/cyan 1.8 mol/mol): 76.1%; Concentration ratio (4 hr) (acrylonitrile concentration with aldehyde / without aldehyde x100) (nitrile hydratase [2]; Example 3: hydrocyanic acid 2.1 ppm, acetaldehyde 3 ppm in acrylonitrile, acetaldehyde/cyan 0.9 mol/mol): 92.5%; Concentration ratio (4 hr) (acrylonitrile concentration with aldehyde / without aldehyde x100) (nitrile hydratase [2]; Example 4: hydrocyanic acid 1.1 ppm, acetaldehyde 10 ppm in acrylonitrile, acetaldehyde/cyan 5.6 mol/mol): 9.8%; rate of a reaction that converts acrylonitrile to an amide compound (nitrile hydratase [2]; compared to Comparative Example without acetaldehyde, hydrocyanic acid 2.1 ppm or 1.1 ppm): high
7 | CCC=O [No. 3, propionaldehyde] | 2.2% | 1.4% | Concentration Ratio (6 hr) ([3]; propionaldehyde 10 ppm in reaction solution, propionaldehyde/cyan 22.9 mol/mol): 82.7%; Concentration Ratio (6 hr) ([3]; propionaldehyde 25 ppm in reaction solution, propionaldehyde/cyan 57.1 mol/mol): 70.4%; Concentration Ratio (6 hr) ([3]; propionaldehyde 50 ppm in reaction solution, propionaldehyde/cyan 114.3 mol/mol): 60.0%; Concentration Ratio (6 hr) [4]: 33.3%
8 | O=Cc1ccccc1 [No. 15, benzaldehyde] | 92.0% | 66.2% | 
9 | O=CO [No. 10, formic acid, reference compound] | 99.6% | 88.9% | Concentration Ratio (3.5 hr) (nitrile hydratase [1]; [6]): 95.1%; Concentration Ratio (6 hr) (nitrile hydratase [1]; [6]): 94.9%
10 | OC[C@@H](O)[C@@H](O)CO [No. 12, meso-erythritol, reference compound] | 103.3% | 118.2% | Concentration Ratio (3.5 hr) (nitrile hydratase [1]; [6]): 97.8%; Concentration Ratio (6 hr) (nitrile hydratase [1]; [6]): 97.3%
11 | CCCCCCCCC=O [No. 8, nonanal] | 97.1% | 81.4% | Concentration Ratio (3.5 hr) (nitrile hydratase [1]; [6]): 80.1%; Concentration Ratio (6 hr) (nitrile hydratase [1]; [6]): 35.0%
12 | CCCC=O [No. 4, butyraldehyde] | 3.1% | 2.7% | 
13 | COc1cc(C=O)ccc1O [No. 18, vanillin] | 92.9% | 71.7% | 
14 | CC1NC(C)NC(C)N1 (stereo not shown) [No. 19, acetaldehyde ammonia] | 30.0% | 3.3% | 
15 | O=CC=O [No. 11, dialdehyde oxalate] | 33.4% | 12.2% | 
16 | CCCCCC=O [No. 5, hexanal] | 83.9% | 17.8% | 
17 | CCCCCCCCCC=O [No. 9, decanal] | 96.1% | 67.0% | 
18 | paraformaldehyde [No. 14] | 1.1% | 1.1% | 
